# Biological target: T1, S. aureus MRSA LeuRS (Staphylococcus aureus, UniProt P67513)
# T1 construct: The LeuRS gene from MRSA (PW-71) was amplified by PCR; made in house; host or cells: E. coli BL21(DE3)pLys
# Assay: In vitro aminoacylation (enzyme inhibition) assay
# Format: biochemical
# Procedure: We have undertaken research devoted to determining the most probable mechanism of antibacterial action. […] Considering structural similarity to benzoxaboroles we assumed that benzosiloxaboroles are active through this mechanism. Our working hypothesis was supported by the fact that benzosiloxaboroles are rather bacteriostatic than bactericidal,[26,27] which is consistent with the specificity of the OBORT mechanism. The enzyme inhibition assay was performed for compound 20 as it features high activity against S. aureus MRSA strains and the respective favorable SI = 19.5 (Table 5). […] We obtained S. aureus MRSA LeuRS in the E. coli expression system. From 400 mL culture, approximately 20 mg of 6× His tagged LeuRS (with a molecular mass of 92.3 kDa) was purified to more than 90% homogeneity, which was confirmed by sodium dodecylsulfate-polyacrylamide gel electrophoresis (SDS-PAGE; Fig. S2, ESI ^†). Next, we used an in vitro aminoacylation assay to investigate the ability of 20 to inhibit S. aureus MRSA LeuRS activity consistent with affecting the transfer of the ^14C-radiolabeled leucine to a total tRNA. […] (residual activity 30.8% at 25 μM).
# The LeuRS gene from MRSA (PW-71) was amplified by PCR using the following primers: 5′-[…]-3′ and 5′-[…]-3′. The amplified leuRS was digested with BamHI and NotI and ligated into pETDuet-1 vector (Novagen) which carries an N-terminal His tag. After sequencing, the pETDuet1-leuRS plasmid was transformed into E. coli BL21(DE3)pLys cells, which were then grown overnight in 20 mL of Luria–Bertani (LB) medium containing 100 μg mL^−1 ampicillin and 30 μg mL^−1 chloramphenicol. Then the overnight culture was inoculated into 400 mL of Super Broth medium containing ampicillin and chloramphenicol at the same concentration, and the cells were grown until the OD600 reached 0.6. […] The protein concentration in the final solution was 2.86 mg mL^−1 (determined by the Bradford method and bovine serum albumin as a standard).[78] […]
# T1 sequence (P67513 whole entry): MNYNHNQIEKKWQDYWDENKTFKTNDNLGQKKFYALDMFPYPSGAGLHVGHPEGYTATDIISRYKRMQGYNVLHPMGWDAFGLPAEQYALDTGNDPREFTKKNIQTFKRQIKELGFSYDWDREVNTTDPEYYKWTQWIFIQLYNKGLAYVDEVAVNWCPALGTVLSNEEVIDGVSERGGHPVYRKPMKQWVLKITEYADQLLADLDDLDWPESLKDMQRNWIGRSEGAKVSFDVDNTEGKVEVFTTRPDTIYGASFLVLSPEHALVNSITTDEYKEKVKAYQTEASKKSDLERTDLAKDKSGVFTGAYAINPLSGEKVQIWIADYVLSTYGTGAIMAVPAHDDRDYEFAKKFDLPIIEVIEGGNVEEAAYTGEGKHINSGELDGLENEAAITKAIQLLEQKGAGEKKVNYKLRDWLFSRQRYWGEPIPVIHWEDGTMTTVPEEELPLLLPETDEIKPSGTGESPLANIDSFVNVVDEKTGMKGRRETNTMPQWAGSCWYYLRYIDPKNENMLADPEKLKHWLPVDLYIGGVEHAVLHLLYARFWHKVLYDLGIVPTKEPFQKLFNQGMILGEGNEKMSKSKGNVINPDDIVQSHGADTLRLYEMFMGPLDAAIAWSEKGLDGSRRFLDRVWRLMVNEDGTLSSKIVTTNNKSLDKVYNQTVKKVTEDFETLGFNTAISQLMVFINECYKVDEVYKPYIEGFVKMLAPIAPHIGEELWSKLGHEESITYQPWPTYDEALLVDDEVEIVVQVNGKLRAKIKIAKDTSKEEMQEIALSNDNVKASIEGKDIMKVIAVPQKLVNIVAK
structure (smiles),measurement,setting,value
"C[Si]1(C)OB(O)c2cc(F)c(SCCS(=O)(=O)c3ccccc3)c(F)c21 [Compound 20, 5,7-Difluoro-1,1-dimethyl-6-((2-(phenylsulfonyl)ethyl)thio)benzo[c][1,2,5]oxasilaborol-3(1H)-ol]",IC50,,> 200 µM
same,remaining activity at 25 µM,read-out: residual activity of S. aureus MRSA LeuRS,92.9%
